# From PMC9511493, “2-(Fluoromethoxy)-4′-(S-methanesulfonimidoyl)-1,1′-biphenyl (UCM-1306), an Orally Bioavailable Positive Allosteric Modulator of the Human Dopamine D1 Receptor for Parkinson’s Disease” (Journal of Medicinal Chemistry, 2022)
# “And” between values parts separate entries of the source, which are not always exact repeats. Identical values can stand only once.
# Columns and labels:
# [1] = molecular target: T1, human serum albumin (HSA) (Homo sapiens, UniProt P02768); assay: HSA binding assay (TRANSIL XL); format: in vitro ADME; conditions: for HSA binding (%): at a concentration of 5 μM
# T1 construct: purchased Sovicell TMP-0210-2096
# T1 sequence (P02768 25-609): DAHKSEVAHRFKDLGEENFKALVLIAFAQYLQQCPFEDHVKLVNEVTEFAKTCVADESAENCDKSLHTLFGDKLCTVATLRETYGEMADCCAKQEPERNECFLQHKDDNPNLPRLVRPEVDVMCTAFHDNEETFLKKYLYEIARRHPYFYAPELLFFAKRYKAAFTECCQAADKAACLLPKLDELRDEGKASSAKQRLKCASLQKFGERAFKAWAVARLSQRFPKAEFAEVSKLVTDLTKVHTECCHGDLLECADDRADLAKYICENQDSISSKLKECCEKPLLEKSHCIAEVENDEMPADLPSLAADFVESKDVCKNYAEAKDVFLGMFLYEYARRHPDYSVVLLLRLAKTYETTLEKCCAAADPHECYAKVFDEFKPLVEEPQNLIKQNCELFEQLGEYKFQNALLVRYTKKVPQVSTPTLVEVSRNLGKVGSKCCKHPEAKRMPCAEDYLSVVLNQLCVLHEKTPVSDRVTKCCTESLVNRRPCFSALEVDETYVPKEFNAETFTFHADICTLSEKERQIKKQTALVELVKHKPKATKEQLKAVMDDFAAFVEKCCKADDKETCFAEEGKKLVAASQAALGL
# Experimental: HSA binding assay. The assessment of compounds binding to HSA was performed by incubating a fixed concentration of the compound with different concentrations of immobilized HSA, using the TRANSILXL HSA Binding Kit (TMP-0210- 2096, Sovicell). An 8-well unit of the TRANSIL assay plate was used for each compound : six wells contain increasing concentrations of HSA immobilized on silica beads suspended in PBS at pH 7.4, and two wells contain buffer only and serve as references to account for nonspecific binding. The TRANSIL assay plate was thawed for 3 h at rt and centrifuged at 750g for 5 s. Then, 15 μ L of an 80 μ M stock solution of the compound in PBS (for a final concentration of 5 μ M) were added to each well of the 8-well unit, and the plate was incubated on a plate shaker at 1000 rpm for 12 min at rt. After this time, the plate was centrifuged at 750gfor 10 min, and 50 μL of the supernatants were transferred for analytical quantification by HPLC-MS using selected ion monitoring (SIM). The binding percentage was calculated from the remaining free compound concentration in the supernatant of each well, using the spreadsheet and algorithms supplied with the kit.
# Stability in mouse serum. Stability for selected compounds and reference compound enalapril was assayed by adding 625 μL of a 250 μM solution of test compound in PBS pH 7.4 to 1.875 mL of mouse serum (Europa Bioproducts, EQSM-0100) pre-warmed a t 37 °C. Next, solutions were incubated at 37 °C for 4 h, taking aliquots of 250 μL at t = 0, 1, 2, 3, and 4 h. Each aliquot was quenched in 375 μL of cold ACN, vortexed, incubated for 10 min in ice and centrifuged at 39000g for 10 min. Supernatants were then analyzed by HPLC-MS using SIM mode, and quantification was estimated by using the peak area integration normalized with an internal standard.
# Stability assay in mouse liver homogenate. Stability of test compounds and reference compound propranolol was determined by incubation in liver homogenates following previously reported procedure. […]
# human D1R = molecular target: T2, human D1R (Homo sapiens, UniProt P21728); assay: potentiator-mode cAMP assay (HTRF) in SK-N-MC neuroblastoma cells endogenously expressing human D1R; format: cell-based; conditions: for EC50: potency of the compound at the DA EC70 concentration
# T2 construct: endogenously expressed human D1R in the SK-N-MC cell line (ATCC); host or cells: SK-N-MC human neuroblastoma cells
# T2 sequence (P21728 whole entry): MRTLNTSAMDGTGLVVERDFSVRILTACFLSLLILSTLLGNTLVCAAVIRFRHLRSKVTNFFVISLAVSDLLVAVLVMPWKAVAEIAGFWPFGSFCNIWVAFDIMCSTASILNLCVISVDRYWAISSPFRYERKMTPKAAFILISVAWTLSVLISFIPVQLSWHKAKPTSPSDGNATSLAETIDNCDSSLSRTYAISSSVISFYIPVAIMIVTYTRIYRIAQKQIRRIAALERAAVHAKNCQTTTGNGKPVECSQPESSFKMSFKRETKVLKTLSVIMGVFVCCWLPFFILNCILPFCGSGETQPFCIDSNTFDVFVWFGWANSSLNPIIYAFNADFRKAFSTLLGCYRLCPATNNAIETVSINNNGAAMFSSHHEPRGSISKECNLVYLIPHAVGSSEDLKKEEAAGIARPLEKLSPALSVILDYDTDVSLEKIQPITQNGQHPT
# Experimental: An in-house chemical library of 250 compounds was screened using an in vitro assay measuring accumulation of cAMP in a human neuroblastoma SK-N-MC cell line stably expressing physiological levels of the D1R but not the D5R.[41] To assess allosteric modulation of the D1R, cells were treated with a fixed concentration of the test compounds (10 μM) for 15 min and then co-incubated with increasing concentrations of the endogenous agonist DA. The cAMP concentration was quantified by homogeneous time-resolved fluorescence energy transfer (HTRF) and the effect of each compound on the DA concentration–response curve was measured.
# The PAM efficacy was measured as the percentage of increase over DA EC70 and the potency as the EC50 observed in the concentration–response curve.
# Functional studies at human D1 and D2 receptors were carried out in endogenously expressed human D1R in the SK-N-MC cell line (ATCC), and recombinant human D2R stably transfected in an in-house CHO cell line. Cells were thawed and seeded into a black 96-well plate (1 × 10^4 cells/well for SK-N-MC cell line, 5 × 10^3 cells/well for CHO cell line) in Opti-MEM containing 500 μM IBMX (3-isobutyl-1-methylxanthine).
# CYP3A4 = molecular target: T3, CYP3A4 (Homo sapiens, UniProt P08684); assay: cytochrome inhibition, fluorescence assay, CYP3A4; format: in vitro ADME
# T3 construct: host or cells: insect cell microsomes
# T3 sequence (P08684 whole entry): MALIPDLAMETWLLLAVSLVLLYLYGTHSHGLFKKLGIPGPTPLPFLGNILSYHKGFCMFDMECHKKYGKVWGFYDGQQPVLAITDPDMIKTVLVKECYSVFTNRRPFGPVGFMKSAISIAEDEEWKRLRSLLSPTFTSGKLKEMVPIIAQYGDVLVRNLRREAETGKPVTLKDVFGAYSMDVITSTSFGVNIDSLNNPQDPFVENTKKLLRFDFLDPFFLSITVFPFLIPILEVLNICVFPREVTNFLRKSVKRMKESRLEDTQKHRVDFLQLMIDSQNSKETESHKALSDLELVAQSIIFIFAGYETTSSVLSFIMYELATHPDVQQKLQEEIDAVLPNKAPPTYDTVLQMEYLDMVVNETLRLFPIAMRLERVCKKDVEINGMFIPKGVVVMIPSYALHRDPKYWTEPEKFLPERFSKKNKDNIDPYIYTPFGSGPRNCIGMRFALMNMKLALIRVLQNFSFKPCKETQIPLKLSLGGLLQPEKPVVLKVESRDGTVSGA
# Experimental: Cytochrome inhibition. The objective of this study was to screen the potential of test […]
# performed using recombinant isoforms CYP1A2, CYP2C9, CYP2C19, CYP2D6, and CYP3A4, and probe substrates with fluorescent detection.
# Assays were conducted in a 200 µL volume in 96-well microtiter plates (COSTAR 3915).
# Addition of cofactor-buffer mixture (KH2PO4 buffer, 1.3 mM NADP, 3.3 mM MgCl2, 3.3 mM glucose -6- phosphate, and 0.4 U/mL glucose -6- phosphate dehydrogenase), supersomes control, standard inhibitors (furafyline, tranylzypromine, ketoconazole, sulfaphenazole, and quinidine from Sigma Aldrich) and test compound to the plate was carried out by a liquid handling station (Zephyr Caliper). The plate was then pre-incubated at 37 °C for 5 min, and the reaction was initiated by the addition of the pr e - warmed enzyme/substrate (E/S) mix. […]
# Fluorescence per well was measured using a fluorescence plate reader (Tecan Infinite M1000 pro) and percentage of inhibition was calculated. hERG ion channel inhibition. […]
SMILES,HSA binding (%) [1],EC50 (human D1R),IC50 (CYP3A4; read-out: CYP34A (IC50)),Kd ([1]; read-out: HSA dissociation constant Kd),"Emax (human D1R; SK-N-MC, concentration–response curve of the compound over DA EC70, read-out: % maximum increase (efficacy over DA EC70))",CYP34A (%) (CYP3A4; percentage of inhibition at 10 μM)
"O=Cc1ccc(-c2ccccc2OCF)cc1 [Compound 3, 2′-(Fluoromethoxy)[1,1′-biphenyl]-4-carbaldehyde]",> 99%,12.7 ± 2.4 µM,2.82 ± 0.32 µM,–,–,–
"CS(=N)(=O)c1ccc(-c2ccccc2OCF)cc1 (centres unmarked) [Compound 26, 2-(Fluoromethoxy)-4′-(S-methanesulfonimidoyl)-1,1′-biphenyl]",79%,0.06 ± 0.01 µM,–,156 µM,45 ± 7%,9% and 9 ± 1%
